# In article PMC5554537 (Frontiers in Pharmacology, 2017):
# Several values for one entry are separate records, joined by “and”; a condition that tells them apart may be missing. Identical values can stand only once. Like-named read-outs stand apart in the source and are kept apart here.
# Tests used:
# [1] = Stability in mouse plasma (QC samples); type: physicochemical
# Source text: using octa-deuterated internal standards of SN30000, M13 and M14 synthesised as previously reported (Wang et al., 2012). Intra- and inter-day precision (expressed as relative standard deviation (RSD) and accuracy (expressed as percentage of the nominal value) were deter mined by analy sis of replicates (n=6) of low and high quality control (QC) samples on three different days. The lower limit of quantitation (LLOQ) was defined as the lowest concentration providing RSD and accuracy < 20%. Recovery from plasma and liver ho mogenates was tested at the three QC levels. The recoveries were evaluated by comparing extracted samples with blank extracted solutions spiked with analytes of the same amount.
# Matrix effects, defined as the change in response due to the presence of other substances in the samples, were evaluated by comparing the analytes diluted into the blank plasma or liver extracted solution with that of the same stock solutions diluted in water. Three different concentration levels (low, medium and high QC) were evaluated by analysing three samples at each level. Accuracy , precision, recovery and matrix effects were all acceptable over the concentration ranges evaluated for plas ma (Supplementary Table 1) and for liver homogenates (Supplementary Table 2).
# Stability of the analytes in mouse plasma (Supplementary Table 3) or liver homogenate (Supplementary Table 4) was confirmed during holding of QC samples on ice for up to 2 h under nor mal laboratory lighting, although there was a trend towards loss of SN30000 in plasma samples held in clear microcentrifuge tubes which may reflect the known photosensitivity of the compound (Gu et al., 2014). This loss was reduced by use of red microcentrifuge tubes, and eliminated by black tubes. Stability in both matrices was also confir med for one month storage at -80°C and for three freeze-thaw cycles, while MeOH-deproteinised samples w ere stable for 12 h at 4°C in the autosampler (Supplementary Tables
# [2] = i.p. SN30000 186 mg/kg
# Procedure: M18 was quantified by absorbance detection with reference to an external standard calibration curve.
# Concentration-time data were analyzed by non-compartmental analysis using Phoenix WinNonlin (ver 6.4, Build 6.4.0768 Pharsight, United States); all AUC values were extrapolated to infinity using the linear trapezoidal rule.
# SN30000, M14 and M13 were quantified by LC-MS/MS using stable isotope internal standards, while M18 was quantified by absorbance detection using external standard calibration curves.
# [3] = biological target: T1, mouse brain acetylcholinesterase (Mus musculus, UniProt P21836); experiment: biochemical; conditions: mouse brain homogenate, 37°C
# T1 construct: from tissue; host or cells: mouse brain homogenate
# T1 sequence (P21836 32-614): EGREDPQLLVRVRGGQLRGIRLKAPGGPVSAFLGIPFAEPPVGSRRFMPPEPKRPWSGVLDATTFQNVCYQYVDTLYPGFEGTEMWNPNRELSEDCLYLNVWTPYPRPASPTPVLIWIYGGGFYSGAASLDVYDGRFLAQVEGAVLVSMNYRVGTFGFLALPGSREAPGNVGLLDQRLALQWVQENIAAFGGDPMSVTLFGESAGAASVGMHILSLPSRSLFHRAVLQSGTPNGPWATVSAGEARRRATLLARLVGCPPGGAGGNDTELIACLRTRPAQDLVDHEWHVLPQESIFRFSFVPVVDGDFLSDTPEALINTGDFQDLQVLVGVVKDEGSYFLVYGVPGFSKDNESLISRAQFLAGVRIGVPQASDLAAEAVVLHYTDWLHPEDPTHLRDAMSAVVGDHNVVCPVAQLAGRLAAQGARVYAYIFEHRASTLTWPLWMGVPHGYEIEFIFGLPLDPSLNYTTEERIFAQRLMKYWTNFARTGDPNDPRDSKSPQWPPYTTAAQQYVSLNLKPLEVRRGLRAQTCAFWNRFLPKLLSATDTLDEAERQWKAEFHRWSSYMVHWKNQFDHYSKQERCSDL
# Procedure: TABLE 10: Inhibition of mouse brain acetylcholinesterase activitya by SN30000 and related compounds […]
# aThe acetylcholinesterase inhibition assay is based on Obregon et al., 2005. Mouse brain homogenate was prepared in potassium phosphate buffer (100 mM, pH 7.4), which was pre-incubated with dithiobisnitrobenzoate (final concentration 1 mM) at 37°C for 10 min. After adding acetylthiocholine (final concentration 0.6 mM), the formation of 5-thio-2-nitrobenzoate was measured by monitoring absorbance (Spectramax- M2 spectrophotometer) at 412 nm every 30 s for 10 min. Negative controls (DMSO or saline) and positive control […]
# IC50 values are based on 3-4 deter minations per compound.
# [4] = plasma deproteinised in 3 vol MeOH, 12 h autosampler at 4°C, nominal SN30000 0.5, M14 0.25, M13 0.1 µM
# [5] = plasma deproteinised in 3 vol MeOH, 12 h autosampler at 4°C, nominal SN30000 5, M14 2.5, M13 1 µM
# [6] = plasma deproteinised in 3 vol MeOH, 12 h autosampler at 4°C, nominal SN30000 50, M14 25, M13 10 µM
# [7] = plasma, 1 month at -80°C, nominal SN30000 0.5, M14 0.25, M13 0.1 µM
# [8] = plasma, 1 month at -80°C, nominal SN30000 5, M14 2.5, M13 1 µM
# [9] = plasma, 1 month at -80°C, nominal SN30000 50, M14 25, M13 10 µM
# [10] = plasma, 1 h on ice, black vial, nominal SN30000 0.5, M14 0.25, M13 0.1 µM
# [11] = plasma, 1 h on ice, black vial, nominal SN30000 5, M14 2.5, M13 1 µM
# [12] = plasma, 1 h on ice, black vial, nominal SN30000 50, M14 25, M13 10 µM
# [13] = plasma, 1 h on ice, clear vial, nominal SN30000 0.5, M14 0.25, M13 0.1 µM
# [14] = plasma, 1 h on ice, clear vial, nominal SN30000 5, M14 2.5, M13 1 µM
# [15] = plasma, 1 h on ice, clear vial, nominal SN30000 50, M14 25, M13 10 µM
# [16] = plasma, 1 h on ice, red vial, nominal SN30000 0.5, M14 0.25, M13 0.1 µM
# [17] = plasma, 1 h on ice, red vial, nominal SN30000 5, M14 2.5, M13 1 µM
# [18] = plasma, 1 h on ice, red vial, nominal SN30000 50, M14 25, M13 10 µM
# [19] = plasma, 2 h on ice, black vial, nominal SN30000 0.5, M14 0.25, M13 0.1 µM
# [20] = plasma, 2 h on ice, black vial, nominal SN30000 5, M14 2.5, M13 1 µM
# [21] = plasma, 2 h on ice, black vial, nominal SN30000 50, M14 25, M13 10 µM
# [22] = plasma, 2 h on ice, clear vial, nominal SN30000 0.5, M14 0.25, M13 0.1 µM
# [23] = plasma, 2 h on ice, clear vial, nominal SN30000 5, M14 2.5, M13 1 µM
# [24] = plasma, 2 h on ice, clear vial, nominal SN30000 50, M14 25, M13 10 µM
# [25] = plasma, 2 h on ice, red vial, nominal SN30000 0.5, M14 0.25, M13 0.1 µM
# [26] = plasma, 2 h on ice, red vial, nominal SN30000 5, M14 2.5, M13 1 µM
# [27] = plasma, 2 h on ice, red vial, nominal SN30000 50, M14 25, M13 10 µM
# [28] = plasma, three freeze-thaw cycles, nominal SN30000 0.5, M14 0.25, M13 0.1 µM
# [29] = plasma, three freeze-thaw cycles, nominal SN30000 5, M14 2.5, M13 1 µM
# [30] = plasma, three freeze-thaw cycles, nominal SN30000 50, M14 25, M13 10 µM
# [31] = HT29 tumour, tumour-bearing mice
# [32] = liver, HT29 tumour-bearing mice
structure (smiles),measurement,setting,value
[O-][n+]1nc(CCCN2CCOCC2)nc2cc3c(cc21)CCC3 [M14],Bias,[1]; [4],-3.45%
same,Measured conc,[1]; [4],0.24 µM
same,Bias,[1]; [5],-1.00%
same,Measured conc,[1]; [5],2.48 µM
same,Bias,[1]; [6],5.16%
same,Measured conc,[1]; [6],26.29 µM
same,Bias,[1]; [7],1.83%
same,Measured conc,[1]; [7],0.23 µM
same,Bias,[1]; [8],1.63%
same,Measured conc,[1]; [8],2.42 µM
same,Bias,[1]; [9],1.59%
same,Measured conc,[1]; [9],26.65 µM
same,Bias,[1]; [10],-6.07%
same,Measured conc,[1]; [10],0.23 µM
same,Bias,[1]; [11],-9.84%
same,Measured conc,[1]; [11],2.25 µM
same,Bias,[1]; [12],3.20%
same,Measured conc,[1]; [12],25.80 µM
same,Bias,[1]; [13],-6.07%
same,Measured conc,[1]; [13],0.23 µM
same,Bias,[1]; [14],-2.06%
same,Measured conc,[1]; [14],2.45 µM
same,Bias,[1]; [15],-2.50%
same,Measured conc,[1]; [15],24.37 µM
same,Bias,[1]; [16],-3.25%
same,Measured conc,[1]; [16],0.24 µM
same,Bias,[1]; [17],-4.29%
same,Measured conc,[1]; [17],2.39 µM
same,Bias,[1]; [18],0.26%
same,Measured conc,[1]; [18],25.07 µM
same,Bias,[1]; [19],-2.23%
same,Measured conc,[1]; [19],0.24 µM
same,Bias,[1]; [20],-2.62%
same,Measured conc,[1]; [20],2.43 µM
same,Bias,[1]; [21],-2.33%
same,Measured conc,[1]; [21],24.42 µM
same,Bias,[1]; [22],-5.90%
same,Measured conc,[1]; [22],0.24 µM
same,Bias,[1]; [23],0.51%
same,Measured conc,[1]; [23],2.51 µM
same,Bias,[1]; [24],-2.43%
same,Measured conc,[1]; [24],24.39 µM
same,Bias,[1]; [25],-3.27%
same,Measured conc,[1]; [25],0.24 µM
same,Bias,[1]; [26],-0.72%
same,Measured conc,[1]; [26],2.48 µM
same,Bias,[1]; [27],0.70%
same,Measured conc,[1]; [27],25.17 µM
same,Bias,[1]; [28],-4.07%
same,Measured conc,[1]; [28],0.24 µM
same,Bias,[1]; [29],-3.19%
same,Measured conc,[1]; [29],2.42 µM
same,Bias,[1]; [30],3.92%
same,Measured conc,[1]; [30],25.98 µM
same,Concentrations in brain compared with plasma,[2],higher in brain than plasma
same,AUC (extrapolated to infinity),[2]; [31],136 µmol·h/kg
same,Cmax,[2]; [31],46.0 ± 3.9 µmol/kg
same,AUC (extrapolated to infinity),"[2]; brain, non-tumour-bearing mice",126 µmol·h/kg
same,Cmax,"[2]; brain, non-tumour-bearing mice",162 ± 0 µmol/kg
same,AUC (extrapolated to infinity),[2]; [32],305 µmol·h/kg
same,Cmax,[2]; [32],371 ± 26 µmol/kg
same,AUC (extrapolated to infinity),"[2]; liver, non-tumour-bearing mice",350 µmol·h/kg
same,Cmax,"[2]; liver, non-tumour-bearing mice",469 ± 27 µmol/kg
same,AUC (extrapolated to infinity),"[2]; plasma, HT29 tumour-bearing mice",27. 6 µmol. hr/kg
same,AUC (extrapolated to infinity),"[2]; plasma, non-tumour-bearing mice",26.4 µmol·h/kg
same,IC50,[3],58.3 µM and 58 µM
